According to patent US20050153395A1, “Unique integrin binding site in connective tissue growth factor (CTGF)” (CHILDREN'S HOSPITAL INC., priority 2003, published 2005):

Key:
[1] = system: hepatic stellate cells (HSC); assay: HSC adhesion assay on coated wells (CyQUANT fluorescence); assay type: cell-based, rat; settings: for effect of divalent cation on HSC adhesion to CTGF4: 10 mM cation, after EDTA; for HSC adhesion supported by the coated substance: coated at 2 μg/ml; for inhibition of CTGF4-mediated HSC adhesion: wells coated 2 μg/ml CTGF4, antibody/IgG 25 μg/ml, heparin 2 μg/ml
Protocol: CTGF4 is known to be expressed in hepatic stellate cells (HSC) and to induce proliferation and extracellular matrix (ECM) production in these cells. (Williams et al., J Hepatol 32, 754-761, 2000; Paradis et al., Lab Invest 82, 767-774, 2002). The following experiments were carried out to determine if HSCs adhere to CTGF. HSCs were isolated from normal Sprague-Dowley rate by sequential perfusion with pronase/collagenase and purified by density gradient separation as described in Vyas et al. (Gastroenterology 109: 889-898, 1995).
The cells were subsequently detached using 1 mM EDTA PBS (137 mM NaCl, 2.7 mM KCl, 4.3 mM Na2HPO4, 1.4 mM KH2PO4, pH 7.3), washed twice in DMEM and resuspended in serum free medium containing 0.5% BSA. The cells-were plated (1.25×10^4 cells/well) in a 96 well plate coated with one of the following: 2 μg/ml CTGF isoform (CTGF1-4, CTGF3-4, CTGF4), 1 μg/ml laminin, or 4 μg/ml vitronectin and incubated for 20 minutes at 37° C. Subsequently the cells were washed with PBS and the adherent cells were fixed with 10% formalin and stained with CyQUANT GR dye/cell lysis buffer (Molecular Probes , Eugene, Oreg.) according to the manufacturer's instructions. The number of cells that adhered to CTGF isoforms or ECM protein was quantified by measuring the sample fluorescence intensity at Ex/Em: 480/520 nm using a micro-plate reader (CytoFluor™ 2350).
To determine if the CTGF-mediated HSC adhesion was carried out through integrin receptors, the experiment described above were carried out in the presence and absence of 10 mM EDTA. […] It is widely believed that Mn^2+ induces conformational shifts that mimic the physiological activation of β1 and β3 integrins (Roberts et al., J Biol Chem 278: 1975-1985, 2003, van der Pauw et al., J Periodontal Res 37: 317-323, 2002) as Mn^2+-induced activation leads to enhanced ligand-binding affinity and cell adhesion (Mould et al., J Biol Chem 277: 19800-19805, 2002, Loftus & Liddington J Clin Invest 100: S77-81, 1997, Lin et al., J Biol Chem 272: 14236-14243, […]).
Synthetic peptides GRGDsp (1 mM), GRGEsp (1 mM), Echistatin (2 μM) or vehicle buffer alone were added to the, HSC culture medium 30 minutes prior to plating.
In addition, adhesion assays as described in Example 1 were carried out in CTGF4 coated plates in the presence and absence of monoclonal antibody specific for αvβ3 (LM609).

[2] = system: pancreatic stellate cells (PSC); assay: PSC adhesion assay on coated wells; assay type: cell-based, rat; settings: for inhibition of PSC adhesion to CTGF4: 2 μg/ml CTGF4 coat, EDTA 5 mM, antibodies 25 μg/ml, heparin 2 μg/ml, peptides 35 μM; for PSC adhesion supported by the coated substance: coated at 2 μg/ml; for inhibition of FN-mediated PSC adhesion: fibronectin coat; for restoration of CTGF-mediated PSC adhesion after EDTA: 10 mM cation, 5 mM EDTA
Text: Rat PSCs were isolated by a modification of the method described by Phillips et al., Gut; 52:677-82, 2003. Briefly, pancreatic tissue was digested in situ with 0.03% collagenase P (Roche, Indianapolis, Ind.) in HBSS by perfusion through the thoracic aorta. This protocol was approved by the Institutional Animal Care and Use Committee of Children's Research Institute, Columbus, Ohio. The tissue was pooled, minced with scissors, and then digested with 0.05% collagenase P, 0.02% protease XIV (Sigma, St. Louis), and DNase I (Roche, Indianapolis, Ind.) in HBSS. The resulting cell suspension was centrifuged in a 12% Optiprep gradient at 1400 g for 14 minutes. Stellate cells separated into a hazy band just above the interface of a the gradient and the aqueous buffer. This band was harvested, and the cells washed and resuspended in DMEM supplemented with 25 mM Hepes buffer, 10% FBS, and 100 U/ml penicillin in, 100 μg/ml streptomycin. The, cells were maintained at 37° C. in a humidified atmosphere of 5% CO2/95% air.
The ability of activated PSC to adhere to non-tissue culture plastic microtiter wells coated with recombinant CTGF1-4, CTGF3-4 or CTGF4 was investigated. The solid phase binding assay was carried out as described in Example 2. […] To assess the possibility that CTGF-mediated PSC adhesion involved cell surface integrins, the effect of divalent cations on cell adhesion was examined, as described in Example 2. […]
Because CTGF is a heparin-binding protein, this property was further investigated.
To identify the peptides that bind to PSCs, cell adhesion assays were carried out as described in Example 3.
To further investigate the peptide binding, P2 or P5 (10 μM) or vehicle buffer alone (no add) were added to PSC cell suspensions for 30 minutes at room temperature.

integrin α5β1 = integrin α5β1 (Homo sapiens, UniProt P05556+P08648); assay: Solid phase ELISA of integrin α5β1 binding; settings: for inhibition of cell-free binding of integrin α5β1 to FN: FN 4 μg/ml; for reversal of EDTA inhibition of α5β1 binding to CTGF4: 10 mM cation
Protocol: In a second approach, a solid phase binding assay was used in which CTGF1-4 or FN were individually coated onto microtiter wells that were subsequently incubated with purified integrin α5β1. The presence of immobilized integrin α5β1 was detected by ELISA using an anti-integrin α5β1 antibody similar to the methods described in Example 3 above. In addition, CTGF1-4 bound to integrin α5β1 in a dose-dependent manner, with maximal binding at 2 μg/ml CTGF. This level of CTGF1-4 (2 μg/ml) binding was the same as that elicited by 2 μg/ml FN, a well known ligand of integrin α5β1. In a similar experiment, 2 μg/ml of CTGF1-4;CTGF3-4 or CTGF4 were individually precoated onto microtiter wells. Using the solid-phase assay, integrin α5β1 bound to CTGF1-4, CTGF3-4 or CTGF4 See FIG. 5 (Panel B).
To directly analyze whether α5β1 integrin binds to CTGF4, microtiter wells coated with CTGF4 (2 μg/ml) or FN (4 μg/ml) were used in an ELISA assay to detect integrin binding, as described in Example 3. For these assays, 1 μg/ml integrin α5β1, alone or in the presence of 35 μM of P2peptide (CTGF[257-272]) and 35 μM of P5 peptide (CTGF [285-291]), were added to the precoated plates. […] The binding between CTGF4 and integrin α5 β1 was blocked by peptide P5 (CTGF [285-291]) or peptide P2 (CTGF[257-272]). […]

CTGF promoter = CTGF promoter luciferase reporter pCCN2-Luc in PSCs; assay type: cell-based, rat; settings: P<0.01 compared with no stimulation
Protocol: TGF-β1 is a well characterized transcriptional activator of CTGF in other cell types. To further examine the mechanism by which TGF-β1 and other fibrogenic stimulators could influence CTGF production in PSCs, CTGF promoter activity in PSCs was evaluated using the luciferase reporter, pCCN2-Luc, as described in Gao et al., (J Hepatol 2004;40:431-8).

integrin αvβ3 = integrin αvβ3 (Homo sapiens, UniProt P05106+P06756); assay: Solid phase ELISA of integrin αvβ3 binding; settings: for inhibition of αvβ3 binding to CTGF4: 35 μM peptide pre-incubated with 1 μg/ml αvβ3
Protocol: Solid phase binding studies were also performed to investigate the binding of CTGF isoforms and αvβ3. Each CTGF isoform or vitronectin was individually coated onto microtiter wells at different concentrations, and the subsequent binding of αvβ3 was detected by ELISA using an anti-human αvβ3 monoclonal antibody. […] Saturation of binding occurred at 2 μg/ml for each CTGF isoform and 4 μg/ml for vitronectin.
In order to identify the αvβ3 binding site in CTGF4, eighteen synthetic peptides spanning the entire C-terminal region of CTGF4 (residues 246-349 of SEQ ID NO: 1) were synthesized and used as potential blocking agents in the solid phase binding studies as described in Example 3. Microtiter wells (Dynex Technology) were pre-coated with different CTGF isoforms at desired concentrations at 4° C. for 16 hours, and then blocked with 2% BSA at room temperature for 2 hours. The plates were washed, four times with PBS, pH 7.3, containing 1 mM CaCl2 and 1 mM MgCl2. Integrin αvβ3 (1 μg/ml) was pre-incubated with each synthetic peptide for 1 hour in blocking solution, and then added to each well, and incubated at room temperature for 3 hours. Integrin αvβ3 was detected by successive incubation with anti-human αvβ3 monoclonal antibody diluted in blocking solution (1:1000), and followed by HRP-conjugated goat anti-mouse IgG (1:4000). The color reaction was developed using the horseradish peroxidase ELISA reagents (Chemicon), and the absorbance at 450 nm was measured using Bio Assay Reader (HTS700).
The ability of mutant CTGF4 to bind to integrin αvβ3 was assessed by solid phase ELISA which measured the ability of purified integrin αvβ3 to bind to the CTGF4 mutants.

PSCs [3] = assay: PSC chemotaxis (migration) assay in culture insert; assay type: cell-based, rat; settings: substance in lower chamber
Protocol: To examine whether CTGF plays a role in PSC migration, a chemotaxis assay was carried out in which the migratory behavior of PSCs in the upper chamber of a culture insert was assessed following addition of CTGF to the lower chamber. […] PSC migration was also promoted by FN, PDGF or TGF-β1.

PSCs [4] = assay: PSC DNA synthesis, [3H]thymidine incorporation; assay type: cell-based, rat; settings: 24 hours; CTGF1-4 effect in 0.1% serum, not in serum-free medium
Protocol: To measure the effect of CTGF on cell proliferation, DNA synthesis was measured by ^3H incorporation in PSCs. The cells were incubated for 24 hours with 0.2 μCi [^3H] thymidine in each well (24-well plate). The incorporation of [^3H] thymidine into PSC DNA was determined using a scintillation counter after the cells had been washed with PBS, fixed with 10% methanol, treated with cold 5% trichloroacetic acid, and lysed in 0.3 N NaOH.

[5] = EDTA 10 mM, GRGDsp 1 mM, Echistatin 2 μM

Chain of integrin α5β1 (P08648 42-894 limits assumed): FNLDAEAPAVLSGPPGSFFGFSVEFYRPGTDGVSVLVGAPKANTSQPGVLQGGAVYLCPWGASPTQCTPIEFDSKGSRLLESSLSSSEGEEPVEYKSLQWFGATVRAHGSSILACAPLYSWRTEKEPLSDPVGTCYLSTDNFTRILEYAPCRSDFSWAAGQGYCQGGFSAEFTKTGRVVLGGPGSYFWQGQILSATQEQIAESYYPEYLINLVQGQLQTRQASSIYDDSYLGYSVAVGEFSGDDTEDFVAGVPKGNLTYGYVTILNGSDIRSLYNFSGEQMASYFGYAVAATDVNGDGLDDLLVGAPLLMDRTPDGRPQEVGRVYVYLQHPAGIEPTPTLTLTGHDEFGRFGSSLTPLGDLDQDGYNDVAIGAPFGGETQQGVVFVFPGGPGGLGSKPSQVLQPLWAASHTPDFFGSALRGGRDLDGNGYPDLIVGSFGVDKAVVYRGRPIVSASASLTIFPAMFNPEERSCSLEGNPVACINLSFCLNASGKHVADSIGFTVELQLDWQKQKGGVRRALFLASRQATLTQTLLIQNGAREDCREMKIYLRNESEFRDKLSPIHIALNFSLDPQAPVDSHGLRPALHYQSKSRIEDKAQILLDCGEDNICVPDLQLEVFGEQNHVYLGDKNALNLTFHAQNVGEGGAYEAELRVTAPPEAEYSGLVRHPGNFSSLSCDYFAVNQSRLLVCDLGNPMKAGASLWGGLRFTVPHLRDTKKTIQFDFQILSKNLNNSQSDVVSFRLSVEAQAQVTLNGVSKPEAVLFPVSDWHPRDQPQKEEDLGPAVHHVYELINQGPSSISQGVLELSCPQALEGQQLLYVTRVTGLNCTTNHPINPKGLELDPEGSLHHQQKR
Chain of integrin α5β1 (P08648 895-1049 partner limits assumed): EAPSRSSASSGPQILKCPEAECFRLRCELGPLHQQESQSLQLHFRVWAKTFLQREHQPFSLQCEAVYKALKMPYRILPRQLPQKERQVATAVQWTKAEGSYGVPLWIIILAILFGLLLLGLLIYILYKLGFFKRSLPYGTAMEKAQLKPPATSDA
Chain of integrin α5β1 (P05556 21-798): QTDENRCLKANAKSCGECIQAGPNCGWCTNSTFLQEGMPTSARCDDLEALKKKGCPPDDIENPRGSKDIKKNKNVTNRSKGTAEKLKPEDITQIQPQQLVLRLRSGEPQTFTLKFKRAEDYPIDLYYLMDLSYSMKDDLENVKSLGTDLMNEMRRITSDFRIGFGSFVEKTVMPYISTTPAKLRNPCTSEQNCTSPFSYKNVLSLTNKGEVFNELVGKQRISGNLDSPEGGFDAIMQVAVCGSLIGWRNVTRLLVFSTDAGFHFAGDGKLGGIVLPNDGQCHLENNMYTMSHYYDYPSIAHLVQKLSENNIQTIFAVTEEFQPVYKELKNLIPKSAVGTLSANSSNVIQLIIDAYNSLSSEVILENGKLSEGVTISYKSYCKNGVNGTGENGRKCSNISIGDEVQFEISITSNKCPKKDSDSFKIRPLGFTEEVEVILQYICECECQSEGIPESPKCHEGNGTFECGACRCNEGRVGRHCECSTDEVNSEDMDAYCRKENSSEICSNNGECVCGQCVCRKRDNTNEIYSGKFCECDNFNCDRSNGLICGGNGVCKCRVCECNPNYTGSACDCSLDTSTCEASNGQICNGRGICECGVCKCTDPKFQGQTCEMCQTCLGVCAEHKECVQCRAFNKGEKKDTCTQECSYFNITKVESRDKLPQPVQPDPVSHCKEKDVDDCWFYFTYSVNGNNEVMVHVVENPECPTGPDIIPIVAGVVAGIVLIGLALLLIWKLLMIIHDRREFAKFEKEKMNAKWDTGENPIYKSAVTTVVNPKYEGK
Chain of integrin αvβ3 (P06756 31-889 limits assumed): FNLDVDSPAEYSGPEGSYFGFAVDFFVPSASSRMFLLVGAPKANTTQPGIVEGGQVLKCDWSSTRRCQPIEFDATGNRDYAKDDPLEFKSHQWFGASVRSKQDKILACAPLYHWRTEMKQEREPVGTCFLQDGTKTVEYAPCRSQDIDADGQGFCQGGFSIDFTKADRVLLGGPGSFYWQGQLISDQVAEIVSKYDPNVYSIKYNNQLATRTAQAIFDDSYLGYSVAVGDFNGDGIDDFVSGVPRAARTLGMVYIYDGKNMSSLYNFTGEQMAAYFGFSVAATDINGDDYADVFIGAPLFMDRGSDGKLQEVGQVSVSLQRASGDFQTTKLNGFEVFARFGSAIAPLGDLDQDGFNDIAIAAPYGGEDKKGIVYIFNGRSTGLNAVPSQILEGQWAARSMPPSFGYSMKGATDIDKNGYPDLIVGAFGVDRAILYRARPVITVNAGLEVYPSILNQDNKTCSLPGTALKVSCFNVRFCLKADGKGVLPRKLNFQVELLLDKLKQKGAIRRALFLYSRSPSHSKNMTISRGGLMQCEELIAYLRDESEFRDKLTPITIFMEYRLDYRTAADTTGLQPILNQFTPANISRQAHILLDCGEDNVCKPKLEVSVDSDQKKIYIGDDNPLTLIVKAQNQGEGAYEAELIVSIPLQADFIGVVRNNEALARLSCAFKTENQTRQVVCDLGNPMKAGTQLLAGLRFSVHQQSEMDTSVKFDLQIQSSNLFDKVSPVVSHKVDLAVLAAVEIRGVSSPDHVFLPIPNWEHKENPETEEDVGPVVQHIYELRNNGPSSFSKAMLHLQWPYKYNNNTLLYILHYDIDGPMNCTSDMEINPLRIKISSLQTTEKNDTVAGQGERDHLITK
Chain of integrin αvβ3 (P06756 891-1048 partner limits assumed): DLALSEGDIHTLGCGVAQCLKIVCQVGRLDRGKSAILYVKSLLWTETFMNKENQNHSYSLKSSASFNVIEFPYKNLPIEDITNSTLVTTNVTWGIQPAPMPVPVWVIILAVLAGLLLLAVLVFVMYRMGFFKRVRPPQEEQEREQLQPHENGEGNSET
Chain of integrin αvβ3 (P05106 27-788): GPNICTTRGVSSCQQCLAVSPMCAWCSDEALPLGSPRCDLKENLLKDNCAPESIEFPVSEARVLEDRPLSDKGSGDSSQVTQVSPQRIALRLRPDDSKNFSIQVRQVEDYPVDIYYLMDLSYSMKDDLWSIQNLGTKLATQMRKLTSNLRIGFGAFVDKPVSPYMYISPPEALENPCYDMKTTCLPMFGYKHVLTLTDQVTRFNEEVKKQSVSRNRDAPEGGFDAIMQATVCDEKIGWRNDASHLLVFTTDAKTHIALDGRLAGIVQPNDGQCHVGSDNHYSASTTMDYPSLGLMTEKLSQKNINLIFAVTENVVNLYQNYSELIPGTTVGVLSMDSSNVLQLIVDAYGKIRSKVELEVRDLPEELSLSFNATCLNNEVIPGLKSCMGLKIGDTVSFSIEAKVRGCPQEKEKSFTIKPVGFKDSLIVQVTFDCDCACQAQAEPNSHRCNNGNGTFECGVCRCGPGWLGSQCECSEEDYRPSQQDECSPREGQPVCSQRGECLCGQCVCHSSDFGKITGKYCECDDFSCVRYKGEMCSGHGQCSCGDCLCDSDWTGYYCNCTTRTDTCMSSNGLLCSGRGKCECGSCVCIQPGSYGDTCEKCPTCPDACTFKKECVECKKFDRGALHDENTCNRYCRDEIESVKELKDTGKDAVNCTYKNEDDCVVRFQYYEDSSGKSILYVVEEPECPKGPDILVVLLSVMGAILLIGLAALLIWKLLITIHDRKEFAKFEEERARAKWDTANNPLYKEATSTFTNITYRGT

## [Mn+2] [Mn^2+]
[1]
  effect of divalent cation on HSC adhesion to CTGF4: restored

## GVCTDGR [Peptide P5]
[2]
  inhibition of PSC adhesion to CTGF4: completely inhibited
  PSC adhesion supported by the coated substance: able to support the adhesion
  inhibition of FN-mediated PSC adhesion: able to block
Integrin α5β1; peptides 35 μM, EDTA 5 mM
  inhibition of binding between CTGF4 and integrin α5β1: blocked
Integrin α5β1; peptides 35 μM
  inhibition of cell-free binding of integrin α5β1 to FN: blocked

## CC=O [acetaldehyde]
CTGF promoter
  activity of pCCN2-Luc in PSC: significantly increased

## [Ca+2] [Ca^2+]
[1]
  effect of divalent cation on HSC adhesion to CTGF4: completely abolished
[2]
  restoration of CTGF-mediated PSC adhesion after EDTA: restored
Integrin α5β1
  reversal of EDTA inhibition of α5β1 binding to CTGF4: reversed

## vitronectin: ECM protein, known ligand of αvβ3 [reference compound]
Integrin αvβ3; 1 μg/ml integrin αvβ3
  saturation of αvβ3 binding at coating concentration: 4 µg/mL

## IRTPKISKPIKFELSG [CTGF[257-272]]
[1]
  HSC adhesion to coated peptide, saturation: 2 µg/mL
  HSC adhesion supported by the coated substance: promoted HSC adhesion in a concentration-dependent manner
Integrin αvβ3
  inhibition of αvβ3 binding to CTGF4: completely inhibited
Integrin αvβ3; 35 μM peptide, 4 μg/ml VN coat
  inhibition of αvβ3 binding to vitronectin: 85%
[2]
  inhibition of PSC adhesion to CTGF4: completely inhibited
  PSC adhesion supported by the coated substance: able to support the adhesion
  inhibition of FN-mediated PSC adhesion: unaffected
Integrin α5β1; peptides 35 μM
  inhibition of cell-free binding of integrin α5β1 to FN: did not block

## IRTPAAAAPIKFELSG [Mutant 2, mutant CTGF4 protein with K261A, I262A, S263A, K264A]
[1]; mutant CTGF4 proteins
  HSC adhesion relative to wild-type CTGF4: completely unable to support HSC adhesion

## PDGF
CTGF promoter
  activity of pCCN2-Luc in PSC: significantly increased
PSCs [3]
  PSC migration: promoted
PSCs [4]
  PSC proliferation (DNA synthesis): significantly enhanced

## EENIKKGKKCIRTP (listed as Homo sapiens) [CTGF[247-260]]
[1]
  HSC adhesion supported by the coated substance: no adhesion ability

## [Mg+2] [Mg^2+]
[1]
  effect of divalent cation on HSC adhesion to CTGF4: restored
[2]
  restoration of CTGF-mediated PSC adhesion after EDTA: restored
Integrin α5β1
  reversal of EDTA inhibition of α5β1 binding to CTGF4: reversed

## [Na+].[O-][Cl+2]([O-])[O-] [sodium chlorate]
[1]; [5]
  inhibition of CTGF4-mediated HSC adhesion: Inability of HSC to adhere to CTGF4
[1]; wells coated 4 μg/ml vitronectin
  inhibition of vitronectin-mediated HSC adhesion: unaffected

## GRGDsp
[1]; wells coated 2 μg/ml CTGF1-4, EDTA 10 mM, GRGDsp 1 mM, Echistatin 2 μM
  inhibition of CTGF1-4-mediated HSC adhesion: 45%
[1]; wells coated 2 μg/ml CTGF3-4, EDTA 10 mM, GRGDsp 1 mM, Echistatin 2 μM
  inhibition of CTGF3-4-mediated HSC adhesion: 51%
[1]; [5]
  inhibition of CTGF4-mediated HSC adhesion: 58%

## CTGF[259-272]: CTGF4 peptide that covers 87.5% of the sequence of peptide CTGF[257-272] (TPKISKPIKFELSG)
Integrin αvβ3
  inhibition of αvβ3 binding to CTGF4: 67%

## chondroitinase ABC
[1]; [5]
  inhibition of CTGF4-mediated HSC adhesion: no effect

## CCO [ethanol]
CTGF promoter
  activity of pCCN2-Luc in PSC: significantly increased
